Data reported in patent publication US20180000750A1, “ANTIPLATELET AGENT AND USES THEREOF” (priority 2015, published 2018).

Assays:
[1] = molecular target: T1, platelet glycoprotein (GP) IIb/IIIa receptors (Homo sapiens, UniProt P05106+P08514); assay: VerifyNow GPIIb/IIIa assay (PAU); format: cell-based; details: no treatment 161
T1 construct: It is a whole-blood assay based on light transmission measurements; endogenous in cells; host or cells: platelets in citrated whole blood of healthy volunteers
Description: (§1) It is a whole-blood assay based on light transmission measurements. The assay is a turbidimetric-based optical detection system that, like optical aggregometry, depends on the ability of activated platelets to bind fibrinogen. When platelets are activated, they form aggregates with fibrinogen-coated beads and the light transmission through the samples increases. Arachidonic acid, ADP and thrombin receptor activating peptide are the corresponding agonists used in VerifyNow system to specifically differentiate the platelet activation pathways. In the aspirin-specific assay, the degree of aggregation attenuated by aspirin, which blocks the arachidonic acid pathway, is quantified according to a corresponding decrease in light transmission and is reported as aspirin reaction units (ARU). ARU value less than 550 indicates adequate platelet inhibition by aspirin treatment. The residual activity of platelet after inhibition on P2Y12 receptor is represented as the P2Y12 reaction units (PRU). The normal PRU distribution range without anti-platelet therapy is 194-418. P2Y12 antagonist like clopidogrel and ticagrelor may be used as the positive control. […] The reference range was 125-330. Aggrastat may be used as the positive control medication for PAU value.
(§2) The VerifyNow P2Y12 system measures the rate and extent of changes in light transmittance caused by platelets aggregating in whole blood samples.

arachidonic acid pathway = assay: VerifyNow aspirin assay (ARU); format: cell-based, human; details: no treatment 660
Description: as §1, §2

P2Y12 receptor = molecular target: T2, P2Y12 receptor (Homo sapiens, UniProt Q9H244); assay: VerifyNow P2Y12 assay (PRU); format: cell-based; details: no treatment 314
T2 construct: It is a whole-blood assay based on light transmission measurements; endogenous in cells; host or cells: platelets in citrated whole blood of healthy volunteers
Description: as §1, §2

[2] = tested on: adhesion of THP-1 to HUVECs; assay: THP-1 cell adhesion to TNF-α-activated HUVECs; format: cell-based, human; details: 80 μM, TNF-α-exposed cells, compared to TNF-α alone
Procedure: HUVECs were starved in serum-free medium for 1 hour before treatments. For adhesion assays, HUVECs monolayers in 96-well plates were treated for 2 hours with physalin B and/or TNF-α for 4 hours. After treatment, 1×10^6 THP-1 cells labeled with 5 μM calcein-AM were seeded onto confluent HUVECs and co-cultured for 30 min at 37° C. in 5% CO2 incubator. Non-adherent THP-1 cells were removed by washing with 1× phosphate buffered saline (PBS) twice. Cell images were collected by a fluorescence microscope (Zeiss) and quantified using a fluorescence microplate reader at an excitation wavelength of 490 nm and an emission wavelength of 525 nm (Bio-Tek Synergy HT).
The in vitro adhesion of THP-1 to HUVECs was monitored by use of a fluorescence dye, Calcein-AM, which stains only the viable cells. Briefly, THP-1 cells were labeled with calcein-AM first, then co-cultured with physalin B pre-treated HUVECs in the presence of TNF-α, which was added to induce inflammation. The fluorescence intensity at 525 nm was then measured.

platelets [3] = assay: Lactate dehydrogenase release from platelets (cytotoxicity); format: cell-based; details: up to 160 μM, 30 min at 37° C.
Procedure: Cytotoxicity of physalin B on platelets were evaluated by measuring the release of lactate dehydrogenase (LDH). Platelets were suspended in Tyrodes's solution at a concentration of 3×10^8 platelets/ml. For positive control, platelets were disrupted by sonication at 4° C. for 30 sec at 40 kHz with a Biosonic Sonicator. The supernatant was used for LDH determinations. LDH activity was measured as an increase in the absorbance of NADH at 340 nm using lactate as substrates. The tests were carried out with a Toshiba Medical automatic chemical analyzer, TBA-200FR (Toshiba Medical products). The platelets were pretreated with various concentrations of physalin B for 30 min at 37° C., and the supernatant was used to measure the LDH activity.
In this example, the cytotoxic effect of physalin B on platelets was investigated by measuring the activity of lactate dehydrogenase (LDH) released from the ruptured platelets. The platelets were exposed to various concentrations of physalin B (PHB) or DMSO, which was used as the vehicle control, while sonication ruptured platelets served as a positive control. The final concentration of DMSO in the test medium was less than 0.1%. Results are depicted in FIG. 4.

[4] = Occlusion time for irradiation induced platelet plug formation in mesenteric venules; format: in vivo, ICR mice; details: mice, DMSO vehicle 241±6.8 sec
Description: (§3) ICR mice (7-8 weeks old, each weighted about 18 to 25 g) were used in this study. All mice were maintained in the animal facility under 12 hrs light/dark cycle, with ad libitum access to food and water.
In this example, the effects of Physalin B on the aggregation of platelets were investigated by the measurement of the occlusion time for irradiation induced platelet plug formation. Briefly, mice were respectively treated with normal saline, DMSO vehicle, and Physalin B (i.e., 0.025, 0.05, or 0.1 mg/g), then the mesentertic venules were selected for irradiation to induce microthrombus formation. The occlusion time was defined as the time in which the platelet plug was first observed. Results are illustrated in FIG. 3.

Tail bleeding time = format: in vivo, ICR mice; details: mice, intraperitoneal, 0.1 mg/Kg, cut 30 minutes after treatment; DMSO vehicle 83.1±11.7 sec
Description: as §3
Briefly, the test mice were randomly divided into three groups, in which the control mice received intraperitoneal injection of normal saline, whereas mice in the vehicle and the test groups respectively received intraperitoneal injection of the vehicle (i.e., DMSO) and Physalin B (i.e., […]). A cut (about 2-3 mm in length) was incised on the tail vein of each mice (about 3-5 cm from the tip of the tail) 30 minutes after the indicated treatment, then the blood was collected into a warm saline, in which the volume and the time to cessation of bleeding were both measured. Bleeding time was defined as the time in which the first cessation of bleeding was observed. Results are illustrated in FIG. 2.

platelets [5] = assay: PFA-100 platelet function, collagen/ADP (CADP) cartridge closure time; format: cell-based, human; details: 10 μM, collagen/ADP stimulus, citrated whole blood
Procedure: (§4) Ten healthy, non-smoking volunteers (6 women, 4 men), ages 23-39 years old, participated in this study. The citrated whole blood samples were incubated at room temperature for 60 min. with physalin B (dissolved in 0.5% DMSO) or the vehicle alone. Platelet function measurement was performed with a PFA-100 analyzer system (Dade-Behring, Marburg, Germany). The PFA-100TM device measures the closure time (CT) required for platelets to plug an aperture simulating an injured vessel after platelet activation by relevant stimuli, namely collagen-epinephrine (EPI) or collagen-ADP (ADP). The maximum value for closure time is 300 seconds and values greater than 300 seconds are reported as non-closure. The closure time was determined with duplicate samples of 800 μL using cartridges containing collagen-epinephrine or collagen-ADP membranes.
(§5) The PFA-100 system is a platelet function analyzer designed to measure platelet-related primary hemostasis. The system uses two disposable cartridges: a collagen/epinephrine (CEPI) and a collagen/ADP (CADP) cartridge.

late EPCs = assay: MTT cell viability, late EPCs; format: cell-based, human; details: 48 hrs, read-out: IC50 (cytotoxicity, MTT)
Procedure: Two different types of EPCs were cultured from adult peripheral blood and defined as early EPCs and late EPCs according to their time-dependent appearance. […] Peripheral blood (20 mL) was obtained from donors with informed consent. The mononuclear cells were fractionated from other components of peripheral blood by centrifugation on Histopaque 1077 (Sigma, St. Louis, Mo.), with gradients according to the manufacturer's instructions. The isolated mononuclear cells were re-suspended with a EGM-2 BulletKit system (catalog number CC-3162; Clonetics™) consisting of an endothelial basal medium, 5% fetal bovine serum, hEGF, VEGF, hFGF-B, IGF-1, ascorbic acid, and heparin; 1×10^7 mononuclear cells per well were seeded on 2% gelatin-coated 6-well plates (Sigma, St. Louis, Mo.) and incubated in a 5% CO2 incubator at 37° C. […]
Cell viability was measured with blue formazan that was metabolized from 3-(4,5-dimethylthiazol-2-yl)-2, 5-diphenyl tetrazolium bromide (MTT, Amresco USA) in mitochondria, which is active only in live cells. […] The absorbance of each well was measured at 540 nm with an ELISA reader and the percentage viability was calculated.
The in vitro cytotoxic effect of physalin B on HUVEC and EPCs were respectively determined by MTT assay, in which cells were exposed to various concentrations of physalin B (i.e., 0, 20, 40, 80 and 160 μM). […]

platelets [6] = assay: PFA-100 platelet function, collagen/epinephrine (CEPI) cartridge closure time; format: cell-based, human; details: 10 μM, collagen-epinephrine stimulus, citrated whole blood; control 125 sec
Procedure: as §4, §5

HUVECs = assay: MTT cell viability, HUVECs; format: cell-based, human; details: 48 hrs, read-out: IC50 (cytotoxicity, MTT)
Procedure: HUVECs were purchased from American Type Culture Collection (ATCC) and were cultivated in endothelal cell nutrient medium consisting of 20% heat-inactivated fetal bovine serum (FBS), 80% Medium 199 (M199) buffered with 25 mM HEPES and supplemented with 2 mM L-Glutamine and 100 U/ml K-Penicillin and 100 μg/mL streptomycin, and kept at 37° C. in a 5% CO2 atmosphere.
Cell viability was measured with blue formazan that was metabolized from 3-(4,5-dimethylthiazol-2-yl)-2, 5-diphenyl tetrazolium bromide (MTT, Amresco USA) in mitochondria, which is active only in live cells. HUVEC and late EPCs were seeded in a 96-well plate at a density of 1×10^5 cells per well, cultured overnight and pretreated with various concentrations of physalin B. After incubation for 6 hr, 24 hr and 48 hr, the MTT (5 mg/ml) colorimetric viability test was used to determine the viability of cells. The absorbance of each well was measured at 540 nm with an ELISA reader and the percentage viability was calculated.
The in vitro cytotoxic effect of physalin B on HUVEC and EPCs were respectively determined by MTT assay, in which cells were exposed to various concentrations of physalin B (i.e., 0, 20, 40, 80 and 160 μM). Results are illustrated in FIGS. 5A and 5B.

[7] = reference drug treatment, normal range 194-418

T1 sequence (P08514 32-887 limits assumed): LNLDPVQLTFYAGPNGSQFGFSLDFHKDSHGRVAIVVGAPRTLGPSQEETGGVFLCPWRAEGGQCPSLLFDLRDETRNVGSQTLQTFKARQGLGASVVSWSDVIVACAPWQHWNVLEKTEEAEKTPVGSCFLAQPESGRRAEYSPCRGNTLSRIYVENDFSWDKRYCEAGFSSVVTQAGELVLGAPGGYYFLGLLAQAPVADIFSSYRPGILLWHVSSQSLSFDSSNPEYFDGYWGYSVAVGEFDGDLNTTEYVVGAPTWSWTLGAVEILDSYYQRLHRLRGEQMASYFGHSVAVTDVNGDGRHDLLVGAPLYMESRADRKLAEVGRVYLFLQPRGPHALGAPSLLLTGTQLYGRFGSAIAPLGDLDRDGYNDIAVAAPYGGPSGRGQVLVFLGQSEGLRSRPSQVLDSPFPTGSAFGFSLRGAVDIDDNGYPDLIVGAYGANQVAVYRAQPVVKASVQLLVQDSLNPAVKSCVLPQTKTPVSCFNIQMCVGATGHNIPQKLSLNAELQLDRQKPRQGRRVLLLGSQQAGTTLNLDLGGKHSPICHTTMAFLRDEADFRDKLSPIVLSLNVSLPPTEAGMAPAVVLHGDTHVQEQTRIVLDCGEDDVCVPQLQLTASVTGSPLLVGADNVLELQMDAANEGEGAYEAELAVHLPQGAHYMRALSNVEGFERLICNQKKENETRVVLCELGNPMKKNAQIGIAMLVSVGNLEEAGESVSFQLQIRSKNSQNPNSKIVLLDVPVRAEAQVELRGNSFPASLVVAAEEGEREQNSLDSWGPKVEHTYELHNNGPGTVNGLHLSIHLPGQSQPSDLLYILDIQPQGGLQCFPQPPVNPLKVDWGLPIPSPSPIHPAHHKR
T1 sequence (P08514 891-1039 limits assumed): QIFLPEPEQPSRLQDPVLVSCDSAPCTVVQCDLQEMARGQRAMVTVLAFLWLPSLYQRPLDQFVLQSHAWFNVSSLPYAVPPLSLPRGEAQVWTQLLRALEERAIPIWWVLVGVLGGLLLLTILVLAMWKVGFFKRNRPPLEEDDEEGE
T1 sequence (P05106 27-788): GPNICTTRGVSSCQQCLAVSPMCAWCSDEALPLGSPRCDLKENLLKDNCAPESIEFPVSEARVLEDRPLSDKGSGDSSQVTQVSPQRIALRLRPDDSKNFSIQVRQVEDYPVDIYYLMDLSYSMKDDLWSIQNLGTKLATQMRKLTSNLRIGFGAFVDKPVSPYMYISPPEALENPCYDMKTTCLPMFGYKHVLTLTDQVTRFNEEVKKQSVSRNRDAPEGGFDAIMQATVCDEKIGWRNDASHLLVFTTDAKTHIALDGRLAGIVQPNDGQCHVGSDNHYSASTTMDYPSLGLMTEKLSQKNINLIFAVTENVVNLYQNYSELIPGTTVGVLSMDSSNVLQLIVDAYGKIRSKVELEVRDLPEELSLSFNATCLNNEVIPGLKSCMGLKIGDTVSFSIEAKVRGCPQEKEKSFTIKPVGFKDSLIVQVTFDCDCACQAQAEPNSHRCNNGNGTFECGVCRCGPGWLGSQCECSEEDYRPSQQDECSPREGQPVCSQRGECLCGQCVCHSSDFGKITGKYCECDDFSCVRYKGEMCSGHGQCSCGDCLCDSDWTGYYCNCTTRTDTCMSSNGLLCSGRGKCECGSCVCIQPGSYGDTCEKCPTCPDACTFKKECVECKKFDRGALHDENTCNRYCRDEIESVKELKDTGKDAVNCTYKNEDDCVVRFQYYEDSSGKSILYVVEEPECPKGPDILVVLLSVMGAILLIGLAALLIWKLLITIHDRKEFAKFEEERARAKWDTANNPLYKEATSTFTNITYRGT
T2 sequence (Q9H244 whole entry): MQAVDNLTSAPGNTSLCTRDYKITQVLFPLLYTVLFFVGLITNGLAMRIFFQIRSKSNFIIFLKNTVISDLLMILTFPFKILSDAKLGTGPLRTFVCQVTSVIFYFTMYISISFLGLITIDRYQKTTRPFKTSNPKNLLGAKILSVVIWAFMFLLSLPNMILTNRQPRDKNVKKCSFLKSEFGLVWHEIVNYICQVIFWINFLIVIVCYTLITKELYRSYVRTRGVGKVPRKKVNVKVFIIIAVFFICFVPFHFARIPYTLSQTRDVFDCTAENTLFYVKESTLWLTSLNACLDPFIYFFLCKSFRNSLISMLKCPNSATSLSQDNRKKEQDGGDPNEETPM

CCCCS(=O)(=O)N[C@@H](Cc1ccc(OCCCCC2CCNCC2)cc1)C(=O)O [Aggrastat, reference compound]
GPIIb/IIIa (PAU) ([1]; reference drug treatment, reference range 125-330): 1 PAU

CC(=O)Oc1ccccc1C(=O)O [Aspirin, Acetylsalicylic acid, reference compound]
Aspirin (ARU) (arachidonic acid pathway; reference drug treatment, <550 indicates adequate inhibition): 404 ARU

COC(=O)[C@H](c1ccccc1Cl)N1CCc2sccc2C1 [Clopidogrel, reference compound]
P2Y12 (PRU) (P2Y12 receptor; [7]): 263 PRU

C[C@]12C(=O)C=CCC1=CC[C@@H]1[C@@H]2CC[C@]2(O)C(=O)O[C@@]3(C)[C@H]4C[C@]5(C)[C@@H](CO[C@@]16O[C@@]32[C@H]5C6=O)C(=O)O4 [Physalin B]
Aspirin (ARU) (arachidonic acid pathway; 20 μM): 469 ARU | Aspirin (ARU) (arachidonic acid pathway; 50 μM): 366 ARU | inhibition on the adhesion of THP-1 to HUVECs [2]: about 35% | LDH release from platelets (platelets [3]): no obvious LDH release | occlusion time ([4]; 0.025 mg/g): 349 ± 12.3 s | occlusion time ([4]; 0.05 mg/g): 390 ± 7 s | occlusion time ([4]; 0.1 mg/g): 415 ± 34.5 s | tail bleeding time (Tail bleeding time): 224.4 ± 58.9 s | closure time (platelets [5]): statistically significant prolonged closure time | IC50 (late EPCs): 76 µM | closure time (platelets [6]): 260 s | IC50 (HUVECs): 30 µM | GPIIb/IIIa (PAU) ([1]; 20 μM): 144 PAU | GPIIb/IIIa (PAU) ([1]; 50 μM): 129 PAU | P2Y12 (PRU) (P2Y12 receptor; 20 μM): 226 PRU | P2Y12 (PRU) (P2Y12 receptor; 50 μM): 65 PRU

CCCSc1nc(N[C@@H]2C[C@H]2c2ccc(F)c(F)c2)c2nnn([C@@H]3C[C@H](OCCO)[C@@H](O)[C@H]3O)c2n1 [Ticagrelor, reference compound]
P2Y12 (PRU) (P2Y12 receptor; [7]): 1 PRU
